# Data: patent US20150150253A1, “CROP ENHANCEMENT COMPOSITIONS” (Syngenta Participations AG, priority 2012, published 2015)
# Where “and” joins values, the source holds several entries; their conditions need not be identical. Equal entries are not always repeated. Where two headings read alike, the source gives them in different places.
# Key:
# Pythium ultimum = Pythium ultimum / liquid culture (seedling damping off), well plate mixture test; type: cell-based
# Gaeumannomyces graminis = Gaeumannomyces graminis / liquid culture (take-all of cereals), well plate mixture test; type: cell-based
# Ustilago nuda = Ustilago nuda / liquid culture (barley loose smut), well plate mixture test; type: cell-based
# [1] = system: Monographella nivalis (Microdochium nivale); assay: Monographella nivalis (Microdochium nivale) / liquid culture (foot rot cereals), well plate mixture test; type: cell-based
# Fusarium culmorum = assay: microbe, parasite or virus in culture; type: cell-based; conditions: read-out: % efficacy observed
# [2] = system: Thanatephorus cucumeris (Rhizoctonia solani)
# Source text: A synergistic effect exists whenever the action of an active ingredient combination is greater than the sum of the actions of the individual components.
# ppm=milligrams of active ingredient (=a.i.) per liter of spray mixture X=% action by active ingredient A) using p ppm of active ingredient Y=% action by active ingredient B) using q ppm of active ingredient. According to COLBY, the expected (additive) action of active ingredients A)+B) using p+q ppm of active ingredient is
# If the action actually observed (O) is greater than the expected action (E), then the action of the combination is super-additive, i.e. there is a synergistic effect. In mathematical terms, synergism corresponds to a positive value for the difference of (O-E). In the case of purely complementary addition of activities (expected activity), said difference (O-E) is zero. A negative value of said difference (O-E) signals a loss of activity compared to the expected activity.
# Method Description Liquid Culture Tests in Well Plates for Mixtures
# Thanatephorus cucumeris (Rhizoctonia solani)/Liquid Culture (Foot Rot, Damping-Off)
# Mycelia fragments of a newly grown liquid culture of the fungus are directly mixed into nutrient broth (PDB potato dextrose broth). After placing a (DMSO) solution of the test compounds into a microtiter plate (96-well format), the nutrient broth containing the fungal material is added. The test plates are incubated at 24° C. and the inhibition of growth is determined photometrically 3-4 days after application and percent antifungal activity relative to the untreated check is calculated.
# [3] = Thanatephorus cucumeris, read-out: % efficacy observed
smiles,measurement,setting,value
"CO/C=C(/C(=O)OC)c1ccccc1Oc1cc(Oc2ccccc2C#N)ncn1 [Azoxystrobin, azoxystrobin]",% efficacy observed,Pythium ultimum; Azoxystrobin 0.0250 mg ai/l,14.0%
same,% efficacy observed,Pythium ultimum; Azoxystrobin 0.0500 mg ai/l,35.6%
same,% efficacy observed,Pythium ultimum; Azoxystrobin 0.1000 mg ai/l,45.3%
same,% efficacy observed,Gaeumannomyces graminis; Azoxystrobin 0.0008 mg ai/l,40.7%
same,% efficacy observed,Gaeumannomyces graminis; Azoxystrobin 0.0016 mg ai/l,67.0%
same,% efficacy observed,Gaeumannomyces graminis; Azoxystrobin 0.0031 mg ai/l,74.8%
COc1ccc(CC(=O)N(O)Cc2ccc(F)cc2)cc1 [Compound D4],Emax at 0.0391 µg/mL,"Pythium ultimum; Globisporangium ultimum, D4 0.0391 mg ai/l, read-out: % efficacy observed",0%
same,Emax at 0.1563 µg/mL,"Pythium ultimum; Globisporangium ultimum, D4 0.1563 mg ai/l, read-out: % efficacy observed",0%
same,Emax at 0.3125 µg/mL,"Pythium ultimum; Globisporangium ultimum, D4 0.3125 mg ai/l, read-out: % efficacy observed",0%
same,Emax at 0.625 µg/mL,"Pythium ultimum; Globisporangium ultimum, D4 0.6250 mg ai/l, read-out: % efficacy observed",0%
same,Emax at 1.25 µg/mL,"Pythium ultimum; Globisporangium ultimum, D4 1.2500 mg ai/l, read-out: % efficacy observed",0%
same,Emax at 2.5 µg/mL,"Pythium ultimum; Globisporangium ultimum, D4 2.5000 mg ai/l, read-out: % efficacy observed",0%
same,% efficacy observed,Gaeumannomyces graminis; D4 0.000000 mg ai/l,5.3%
same,Emax at 0.0781 µg/mL,"Gaeumannomyces graminis; Gaeumannomyces graminis, D4 0.0781 mg ai/l, read-out: % efficacy observed",0%
same,Emax at 0.1563 µg/mL,"Gaeumannomyces graminis; Gaeumannomyces graminis, D4 0.1563 mg ai/l, read-out: % efficacy observed",0%
same,Emax at 0.3125 µg/mL,"Gaeumannomyces graminis; Gaeumannomyces graminis, D4 0.3125 mg ai/l, read-out: % efficacy observed",0%
same,Emax at 0.625 µg/mL,"Gaeumannomyces graminis; Gaeumannomyces graminis, D4 0.6250 mg ai/l, read-out: % efficacy observed",0%
same,Emax at 1.25 µg/mL,"Gaeumannomyces graminis; Gaeumannomyces graminis, D4 1.2500 mg ai/l, read-out: % efficacy observed",0%
same,Emax at 2.5 µg/mL,"Gaeumannomyces graminis; Gaeumannomyces graminis, D4 2.5000 mg ai/l, read-out: % efficacy observed",0%
same,Emax at 5 µg/mL,"Gaeumannomyces graminis; Gaeumannomyces graminis, D4 5.0000 mg ai/l, read-out: % efficacy observed",0%
same,Emax at 10 µg/mL,"Gaeumannomyces graminis; Gaeumannomyces graminis, D4 10.0000 mg ai/l, read-out: % efficacy observed",0%
same,Emax at 20 µg/mL,"Gaeumannomyces graminis; Gaeumannomyces graminis, D4 20.0000 mg ai/l, read-out: % efficacy observed",0%
same,% efficacy observed,Ustilago nuda; D4 0.0391 mg ai/l,8.7%
same,% efficacy observed,Ustilago nuda; D4 0.0781 mg ai/l,2.5% and 0.2%
same,% efficacy observed,Ustilago nuda; D4 0.1563 mg ai/l,3.7%
same,Emax at 0.3125 µg/mL,"Ustilago nuda; Ustilago nuda, D4 0.3125 mg ai/l, read-out: % efficacy observed",0%
same,Emax at 0.625 µg/mL,"Ustilago nuda; Ustilago nuda, D4 0.6250 mg ai/l, read-out: % efficacy observed",0%
same,Emax at 1.25 µg/mL,"Ustilago nuda; Ustilago nuda, D4 1.2500 mg ai/l, read-out: % efficacy observed",0%
same,Emax at 2.5 µg/mL,"Ustilago nuda; Ustilago nuda, D4 2.5000 mg ai/l, read-out: % efficacy observed",7%
same,Emax at 20 µg/mL,"Ustilago nuda; Ustilago nuda, D4 20.0000 mg ai/l, read-out: % efficacy observed",1.3%
same,Emax at 0.1563 µg/mL,"[1]; Monographella nivalis, D4 0.1563 mg ai/l, read-out: % efficacy observed",6.7%
same,Emax at 0.3125 µg/mL,"[1]; Monographella nivalis, D4 0.3125 mg ai/l, read-out: % efficacy observed",10.2%
same,Emax at 0.625 µg/mL,"[1]; Monographella nivalis, D4 0.6250 mg ai/l, read-out: % efficacy observed",0%
same,Emax at 2.5 µg/mL,"[1]; Monographella nivalis, D4 2.5000 mg ai/l, read-out: % efficacy observed",2.8%
same,Emax at 5 µg/mL,"[1]; Monographella nivalis, D4 5.0000 mg ai/l, read-out: % efficacy observed",2.1%
same,Emax at 10 µg/mL,"[1]; Monographella nivalis, D4 10.0000 mg ai/l, read-out: % efficacy observed",6.4%
same,Emax at 20 µg/mL,"[1]; Monographella nivalis, D4 20.0000 mg ai/l, read-out: % efficacy observed",1.4%
same,Emax at 10 µg/mL,Fusarium culmorum,0%
same,Emax at 20 µg/mL,Fusarium culmorum,0%
same,% efficacy observed,[2]; D4 0.6250 mg ai/l,2.1% and 4.6%
same,Emax at 0.0781 µg/mL,"[2]; Thanatephorus cucumeris, read-out: % efficacy observed, D4 0.0781 mg ai/l",0%
same,Emax at 0.1563 µg/mL,"[2]; Thanatephorus cucumeris, read-out: % efficacy observed, D4 0.1563 mg ai/l",0%
same,Emax at 20 µg/mL,"[2]; Thanatephorus cucumeris, read-out: % efficacy observed, D4 20.0000 mg ai/l",0%
CC1COC(Cn2cncn2)(c2ccc(Oc3ccc(Cl)cc3)cc2Cl)O1 (stereo not shown) [Difenconazole],Emax at 0.5 µg/mL,"Gaeumannomyces graminis; Gaeumannomyces graminis, Difenconazole 0.5000 mg ai/l, read-out: % efficacy observed",0%
same,Emax at 1 µg/mL,"Gaeumannomyces graminis; Gaeumannomyces graminis, Difenconazole 1.0000 mg ai/l, read-out: % efficacy observed",10.6%
same,Emax at 2 µg/mL,"Gaeumannomyces graminis; Gaeumannomyces graminis, Difenconazole 2.0000 mg ai/l, read-out: % efficacy observed",39%
same,Emax at 0.5 µg/mL,"Ustilago nuda; Ustilago nuda, Difenconazole 0.5000 mg ai/l, read-out: % efficacy observed",30%
same,Emax at 1 µg/mL,"Ustilago nuda; Ustilago nuda, Difenconazole 1.0000 mg ai/l, read-out: % efficacy observed",45.9%
same,Emax at 2 µg/mL,"Ustilago nuda; Ustilago nuda, Difenconazole 2.0000 mg ai/l, read-out: % efficacy observed",60.5%
same,Emax at 0.5 µg/mL,"[2]; Thanatephorus cucumeris, read-out: % efficacy observed, Difenconazole 0.5000 mg ai/l",0%
same,Emax at 1 µg/mL,"[2]; Thanatephorus cucumeris, read-out: % efficacy observed, Difenconazole 1.0000 mg ai/l",0%
N#Cc1c[nH]cc1-c1cccc2c1OC(F)(F)O2 [Fludioxonyl],Emax at 0.0313 µg/mL,"Ustilago nuda; Ustilago nuda, read-out: % efficacy observed",33.1%
same,Emax at 0.125 µg/mL,[2]; [3],13.8%
same,Emax at 0.25 µg/mL,[2]; [3],66.5%
same,Emax at 0.5 µg/mL,[2]; [3],60.5%
same,Emax at 1 µg/mL,[2]; [3],86.8%
"Cn1cc(C(=O)Nc2ccccc2-c2cc(F)c(F)c(F)c2)c(C(F)F)n1 [Fluxapyroxad, fluxapyroxad]",% efficacy observed,[1]; Fluxapyroxad 0.1875 mg ai/l,22.2%
same,% efficacy observed,[1]; Fluxapyroxad 0.3750 mg ai/l,55.5%
same,% efficacy observed,[1]; Fluxapyroxad 0.7500 mg ai/l,65.4%
same,% efficacy observed,[2]; Fluxapyroxad 0.1875 mg ai/l,29.7%
same,% efficacy observed,[2]; Fluxapyroxad 0.3750 mg ai/l,61.8%
same,% efficacy observed,[2]; Fluxapyroxad 0.7500 mg ai/l,71.9%
same,% efficacy observed,[2]; Fluxapyroxad 1.5000 mg ai/l,67.9%
"COCC(=O)N(c1c(C)cccc1C)[C@H](C)C(=O)OC [Mefenoxam, mefenoxam]",% efficacy observed,Pythium ultimum; Mefenoxam 0.0078 mg ai/l,34.1%
same,% efficacy observed,Pythium ultimum; Mefenoxam 0.0156 mg ai/l,37.8%
same,% efficacy observed,Pythium ultimum; Mefenoxam 0.0313 mg ai/l,70.2%
same,% efficacy observed,Pythium ultimum; Mefenoxam 0.0625 mg ai/l,71.3%
same,% efficacy observed,Pythium ultimum; Mefenoxam 0.1250 mg ai/l,84.4%
"Cc1nn(C)c(F)c1C(=O)Nc1ccccc1C(C)CC(C)C (stereo not shown) [Penflufen, penflufen]",% efficacy observed,Ustilago nuda; Penflufen 0.0039 mg ai/l,23.1%
same,% efficacy observed,[1]; Penflufen 1.0000 mg ai/l,19.4%
same,% efficacy observed,[1]; Penflufen 2.0000 mg ai/l,56.8%
same,% efficacy observed,[2]; Penflufen 0.0156 mg ai/l,20.8%
same,% efficacy observed,[2]; Penflufen 0.0313 mg ai/l,7.5%
same,% efficacy observed,[2]; Penflufen 0.0625 mg ai/l,42.0%
same,% efficacy observed,[2]; Penflufen 0.1250 mg ai/l,64.3%
same,% efficacy observed,[2]; Penflufen 0.2500 mg ai/l,83.3%
"Cn1cc(C(=O)Nc2ccccc2C2CC2C2CC2)c(C(F)F)n1 (stereo not shown) [Sedaxane, sedaxane]",% efficacy observed,Gaeumannomyces graminis; Sedaxane 1.5000 mg ai/l,46.7%
same,% efficacy observed,Ustilago nuda; Sedaxane 0.0117 mg ai/l,55.0%
same,% efficacy observed,[2]; Sedaxane 0.0469 mg ai/l,0.0%
same,% efficacy observed,[2]; Sedaxane 0.0938 mg ai/l,41.1%
same,% efficacy observed,[2]; Sedaxane 0.1875 mg ai/l,71.1%
same,% efficacy observed,[2]; Sedaxane 0.3750 mg ai/l,72.2%
same,% efficacy observed,[2]; Sedaxane 0.7500 mg ai/l,72.2%
"CC(C)(C)C(O)(CCc1ccc(Cl)cc1)Cn1cncn1 (stereo not shown) [Tebuconazole, tebuconazole]",Emax at 0.25 µg/mL,"Gaeumannomyces graminis; Gaeumannomyces graminis, Tebuconazole 0.2500 mg ai/l, read-out: % efficacy observed",43.5%
same,Emax at 0.5 µg/mL,"Gaeumannomyces graminis; Gaeumannomyces graminis, Tebuconazole 0.5000 mg ai/l, read-out: % efficacy observed",47.5%
same,Emax at 1 µg/mL,"Gaeumannomyces graminis; Gaeumannomyces graminis, Tebuconazole 1.0000 mg ai/l, read-out: % efficacy observed",61%
same,Emax at 2 µg/mL,"Gaeumannomyces graminis; Gaeumannomyces graminis, Tebuconazole 2.0000 mg ai/l, read-out: % efficacy observed",74%
same,Emax at 1 µg/mL,"[2]; Thanatephorus cucumeris, read-out: % efficacy observed, Tebuconazole 1.0000 mg ai/l",0%
same,Emax at 2 µg/mL,"[2]; Thanatephorus cucumeris, read-out: % efficacy observed, Tebuconazole 2.0000 mg ai/l",0%
"c1ccc2[nH]c(-c3cscn3)nc2c1 [Thiabendazole, thiabendazole]",Emax at 3 µg/mL,Fusarium culmorum,45.3%
same,Emax at 6 µg/mL,Fusarium culmorum,71.7%
